Data: patent US20040053885A1, “Use of hyaluronic acid derivatives for the prevention of inflammatory arthritis” (priority 2000, published 2004)

Columns and labels:
[1] = test system: antigen-induced arthritis (knee joint); assay: Antigen-induced arthritis of rats: lateral joint diameter of the right knee joint after intraarticular injection; assay type: in vivo, rat (female Wistar); conditions: short-term experiment, 0.05 ml intraarticular on day 1
[2] = test system: antigen-induced arthritis (knee joint); assay: as above; assay type: in vivo, rat (female Wistar); set-up: Joint diameter (right), Day 0: unit not given here; conditions: for Joint diameter (right), Day 0: day 0, joint diameter before induction of arthritis (baseline); for Joint diameter (right), day 1, difference with respect to day 0 / Joint diameter (right), measured value on day 1: day 1 after induction; for Increase of joint diameter (right) from day 0 to day 1: day 1, increase after induction, before treatment takes effect
Method: The animal model employed, antigen-induced arthritis of rats, is a well established animal model which reflects the mechanisms of rheumatoid arthritis (RA) very well. […] Female Wistar rats are employed for this experiment. At an interval of one week, the animals are subcutaneously preimmunized with 0.1 mg of methylalbumin (mBSA) in Freund's complete adjuvant. Two weeks after the second immunization, 0.1 mg of mBSA is injected intraarticularly into the […] knee joint. This injection induces arthritis, which persists for weeks after an acute phase. One day after the induction of the arthritis, the treatment is begun with sulfated hyaluronic acid solution or with high molecular weight hyaluronic acid (MW=1,800 kD), which are injected intraarticularly into the knee joint. The immunization of the animals was effected at an interval of 7 days. In the first immunization, a total of four subcutaneous injections of 0.25 ml each (corresponding to 0.1 mg of methylalbumin in Freund's complete adjuvant) were effected on both sides of the vertebral column at the level of the shoulder blade and above the hip (each at about 1.5 cm distance from the spines of the vertebrae). In the 2nd immunization, 3 depots of 0.3 ml of solution each were introduced; one exactly between the two shoulder blades and two at the level of the abdomen on both sides paravertebrally. The induction of arthritis was effected two weeks after the 2nd immunization by […] injection of 0.05 ml each of a 10 mg/ml solution of mBSA in physiological saline into the respective right knee joint. On the day after induction of arthritis, 0.05 ml each of a formulation containing sulfated HA was injected into the right knee joint of the 20 animals of the experimental group (use of an insulin syringe, thin cannula, 0.35×40 mm). Thereafter, injection was effected once a week (long-term group). The lateral joint diameter of all animals was measured by means of a distance meter (Matatuyo) prior to and 1, 4 and 8 days after the induction of arthritis and then every week until the experiment was completed. The animals were also weighed each time. On the 7th day, 10 animals of the experimental group and 10 animals of the control group were killed. The animals were put down by ether anesthesia, and the sacrifice of the remaining animals was effected 1 week after the last injection of a formulation containing sulfated HA into the right knee joint.

[3] = long-term experiment, intraarticular injection day 1, then once a week
[4] = short-term experiment, 0.05 ml intraarticular on day 1

| Substance | Decrease or increase of joint diameter (right) after the injection on day 1, Day 8 [1] | Joint diameter (right), Day 0 ([2]; long-term experiment) | Joint diameter (right), day 1, difference with respect to day 0 ([2]; long-term experiment) | Joint diameter (right), measured value on day 1 ([2]; long-term experiment) | Decrease or increase of joint diameter (right) after the injection on day 1, Day 4 [2, 3] | Decrease or increase of joint diameter (right) after the injection on day 1, Day 8 [2, 3] | Decrease or increase of joint diameter (right) after the injection on day 1, Day 15 [2, 3] | Decrease or increase of joint diameter (right) after the injection on day 1, Day 22 [2, 3] | Decrease or increase of joint diameter (right) after the injection on day 1, Day 29 [2, 3] | Decrease or increase of joint diameter (right) after the injection on day 1, Day 4 [2, 4] | Joint diameter (right), Day 0 ([2]; short-term experiment) | Increase of joint diameter (right) from day 0 to day 1 ([2]; short-term experiment) | Joint diameters (as a measure of the inflammatory swelling), result in words ([2]; long-term experiment over 3 weeks) |
| --- | --- | --- | --- | --- | --- | --- | --- | --- | --- | --- | --- | --- | --- |
| hyaluronic acid [HA, reference compound] | −45 | 926.0 | +206 | 1132.9 | +27 | −97 | −140 | −144 | −134 | +18 | 913.2 | +206 | – |
| sulfated hyaluronic acid [Sulfated HA] | −118 | 927.6 | +226 | 1153.9 | −4 | −127 | −203 | −212 | −231 | +20 | 867.4 | +228 | significant decrease of the joint diameters |
